Where no end group is shown, it is not given here.
Each substance was assayed on S. aureus (29): reference (5) and clinical (24) strains. Conditions: mean over 29 S. aureus strains (Table 5).
Procedure: Microbiological assays were performed using reference and clinical strains of Staphylococcus aureus. Minimal inhibitory concentrations (MIC) were determined by broth microdilution method on 96-well polystyrene plates according to Clinical and Laboratory Standards Institute (CLSI) recommendations [Clinical and Laboratory Standards Institute (CLSI) [2012]]. […] All plates were incubated for 18 h at 37 °C. […] Reference strains of S. aureus: ATCC 6538, ATCC 6538/P, ATCC 9144, ATCC 12598, and ATCC 25923 were obtained from the Polish Collection of Microorganisms (PCM, Polish Academy of Sciences, Wrocław), whereas 24 clinical strains were isolated from the patients of the Clinic of Dermatology, Venereology and Allergology (Medical University of Gdańsk). Nine strains were characterized as methicillin-resistant (MRSA). Preliminary identification and detection was conducted on the ChromID MRSA/ChromID S. aureus biplate (bioMérieux) for the simultaneous detection of S. aureus and methicillin-resistant S. aureus (MRSA). All experiments were conducted at least in triplicate.
To asses an overall activity of peptides, the mean MIC values were calculated.

Substance	Mean value of MIC [µg/mL]
GLFDVIKKVASVIGGL-NH2 [Citropin 1.1 Cl^−]	10.0
KWKLFKKIGAVLKVL-NH2 [CAMEL Cl^−]	≤ 2.0
GIGKFLKKAKKFGKAFVKILKK-NH2 [Pexiganan TFA^−]	8.4

Same assay, conditions: mean over 29 S. aureus strains, as repeated in Table 6

Substance	Mean MIC values [µg/mL]
GLFDVIKKVASVIGGL-NH2 [Citropin 1.1 Cl^−]	10.0
KWKLFKKIGAVLKVL-NH2 [CAMEL Cl^−]	≤ 2.0

Each substance was assayed on S. aureus 001S (MRSA). Conditions: clinical strain, broth microdilution, 0.5 × 10^5 CFU/mL, 18 h, 37 °C, at least triplicate.
Format: cell-based, Staphylococcus aureus
Procedure: (§1) Microbiological assays were performed using reference and clinical strains of Staphylococcus aureus. Minimal inhibitory concentrations (MIC) were determined by broth microdilution method on 96-well polystyrene plates according to Clinical and Laboratory Standards Institute (CLSI) recommendations [Clinical and Laboratory Standards Institute (CLSI) [2012]]. For this purpose, the initial inoculums of 0.5 × 10^5 CFU/mL of bacteria were exposed to a range of concentrations of the peptides (0.5–256 µg/mL). All plates were incubated for 18 h at 37 °C. MIC was taken as the lowest concentration of the compound at which the growth of bacteria was not observed. Reference strains of S. aureus: ATCC 6538, ATCC 6538/P, ATCC 9144, ATCC 12598, and ATCC 25923 were obtained from the Polish Collection of Microorganisms (PCM, Polish Academy of Sciences, Wrocław), whereas 24 clinical strains were isolated from the patients of the Clinic of Dermatology, Venereology and Allergology (Medical University of Gdańsk). Nine strains were characterized as methicillin-resistant (MRSA). Preliminary identification and detection was conducted on the ChromID MRSA/ChromID S. aureus biplate (bioMérieux) for the simultaneous detection of S. aureus and methicillin-resistant S. aureus (MRSA). All experiments were conducted at least in triplicate.

Substance	MIC [µg/mL]
GLFDVIKKVASVIGGL-NH2 [Citropin 1.1 Cl^−]	16
KWKLFKKIGAVLKVL-NH2 [CAMEL Cl^−]	2

Each substance was assayed on S. aureus 004N (MRSA). Conditions: clinical strain, broth microdilution, 0.5 × 10^5 CFU/mL, 18 h, 37 °C, at least triplicate.
Format: cell-based, Staphylococcus aureus
Procedure: as §1

Substance	MIC [µg/mL]
GLFDVIKKVASVIGGL-NH2 [Citropin 1.1 Cl^−]	8
KWKLFKKIGAVLKVL-NH2 [CAMEL Cl^−]	2

These substances were tested on S. aureus 013S. Conditions: clinical strain, broth microdilution, 0.5 × 10^5 CFU/mL, 18 h, 37 °C, at least triplicate.
Format: cell-based, Staphylococcus aureus
Procedure: as §1

Substance	MIC
GLFDVIKKVASVIGGL-NH2 [Citropin 1.1 Cl^−]	2 µg/mL
KWKLFKKIGAVLKVL-NH2 [CAMEL Cl^−]	≤ (≤ alone stands for MIC ≤ 0.25 µg/mL)

Each substance was assayed on S. aureus 002N. Conditions: clinical strain, broth microdilution, 0.5 × 10^5 CFU/mL, 18 h, 37 °C, at least triplicate.
Format: cell-based, Staphylococcus aureus
Procedure: as §1

Substance	MIC
GLFDVIKKVASVIGGL-NH2 [Citropin 1.1 Cl^−]	16 µg/mL
KWKLFKKIGAVLKVL-NH2 [CAMEL Cl^−]	≤ (≤ alone stands for MIC ≤ 0.25 µg/mL)

Each substance was assayed on S. aureus K46N. Conditions: clinical strain, broth microdilution, 0.5 × 10^5 CFU/mL, 18 h, 37 °C, at least triplicate.
Format: cell-based, Staphylococcus aureus
Procedure: as §1

Substance	MIC [µg/mL]
GLFDVIKKVASVIGGL-NH2 [Citropin 1.1 Cl^−]	16
KWKLFKKIGAVLKVL-NH2 [CAMEL Cl^−]	4

What follows are substances tested on S. aureus 002S. Conditions: clinical strain, broth microdilution, 0.5 × 10^5 CFU/mL, 18 h, 37 °C, at least triplicate.
Format: cell-based, Staphylococcus aureus
Procedure: as §1

Substance	MIC [µg/mL]
GLFDVIKKVASVIGGL-NH2 [Citropin 1.1 Cl^−]	8
KWKLFKKIGAVLKVL-NH2 [CAMEL Cl^−]	1

The substances below were run on S. aureus 017N (MRSA). Conditions: clinical strain, broth microdilution, 0.5 × 10^5 CFU/mL, 18 h, 37 °C, at least triplicate.
Format: cell-based, Staphylococcus aureus
Procedure: as §1

Substance	MIC [µg/mL]
GLFDVIKKVASVIGGL-NH2 [Citropin 1.1 Cl^−]	4
KWKLFKKIGAVLKVL-NH2 [CAMEL Cl^−]	2

Each substance was assayed on S. aureus 030N. Conditions: clinical strain, broth microdilution, 0.5 × 10^5 CFU/mL, 18 h, 37 °C, at least triplicate.
Format: cell-based, Staphylococcus aureus
Procedure: as §1

Substance	MIC [µg/mL]
GLFDVIKKVASVIGGL-NH2 [Citropin 1.1 Cl^−]	16
KWKLFKKIGAVLKVL-NH2 [CAMEL Cl^−]	4

Each substance was assayed on S. aureus 001N (MRSA). Conditions: clinical strain, broth microdilution, 0.5 × 10^5 CFU/mL, 18 h, 37 °C, at least triplicate.
Format: cell-based, Staphylococcus aureus
Procedure: as §1

Substance	MIC [µg/mL]
GLFDVIKKVASVIGGL-NH2 [Citropin 1.1 Cl^−]	16
KWKLFKKIGAVLKVL-NH2 [CAMEL Cl^−]	2

What follows are substances tested on S. aureus ATCC 25923. Conditions: ATCC 25923, reference strain; broth microdilution, 0.5 × 10^5 CFU/mL, 18 h, 37 °C, at least triplicate.
Format: cell-based, Staphylococcus aureus
Procedure: as §1

Substance	MIC [µg/mL]
GLFDVIKKVASVIGGL-NH2 [Citropin 1.1 Cl^−]	16
KWKLFKKIGAVLKVL-NH2 [CAMEL Cl^−]	2

Each substance was assayed on S. aureus ATCC 12598. Conditions: ATCC 12598, reference strain; broth microdilution, 0.5 × 10^5 CFU/mL, 18 h, 37 °C, at least triplicate.
Format: cell-based, Staphylococcus aureus
Procedure: as §1

Substance	MIC [µg/mL]
GLFDVIKKVASVIGGL-NH2 [Citropin 1.1 Cl^−]	8
KWKLFKKIGAVLKVL-NH2 [CAMEL Cl^−]	1

The substances below were run on S. aureus K50S. Conditions: clinical strain, broth microdilution, 0.5 × 10^5 CFU/mL, 18 h, 37 °C, at least triplicate.
Format: cell-based, Staphylococcus aureus
Procedure: as §1

Substance	MIC [µg/mL]
GLFDVIKKVASVIGGL-NH2 [Citropin 1.1 Cl^−]	1
KWKLFKKIGAVLKVL-NH2 [CAMEL Cl^−]	1

The substances below were run on S. aureus 039N. Conditions: clinical strain, broth microdilution, 0.5 × 10^5 CFU/mL, 18 h, 37 °C, at least triplicate.
Format: cell-based, Staphylococcus aureus
Procedure: as §1

Substance	MIC [µg/mL]
GLFDVIKKVASVIGGL-NH2 [Citropin 1.1 Cl^−]	16
KWKLFKKIGAVLKVL-NH2 [CAMEL Cl^−]	4

The substances below were run on S. aureus ATCC 9144. Conditions: ATCC 9144, reference strain; broth microdilution, 0.5 × 10^5 CFU/mL, 18 h, 37 °C, at least triplicate.
Format: cell-based, Staphylococcus aureus
Procedure: as §1

Substance	MIC [µg/mL]
GLFDVIKKVASVIGGL-NH2 [Citropin 1.1 Cl^−]	16
KWKLFKKIGAVLKVL-NH2 [CAMEL Cl^−]	1

These substances were tested on S. aureus 048S. Conditions: clinical strain, broth microdilution, 0.5 × 10^5 CFU/mL, 18 h, 37 °C, at least triplicate.
Format: cell-based, Staphylococcus aureus
Procedure: as §1

Substance	MIC [µg/mL]
GLFDVIKKVASVIGGL-NH2 [Citropin 1.1 Cl^−]	16
KWKLFKKIGAVLKVL-NH2 [CAMEL Cl^−]	4

Each substance was assayed on S. aureus 024N (MRSA). Conditions: clinical strain, broth microdilution, 0.5 × 10^5 CFU/mL, 18 h, 37 °C, at least triplicate.
Format: cell-based, Staphylococcus aureus
Procedure: as §1

Substance	MIC
GLFDVIKKVASVIGGL-NH2 [Citropin 1.1 Cl^−]	2 µg/mL
KWKLFKKIGAVLKVL-NH2 [CAMEL Cl^−]	≤ (≤ alone stands for MIC ≤ 0.25 µg/mL)

The substances below were run on S. aureus ATCC 6538/P. Conditions: reference strain, broth microdilution, 0.5 × 10^5 CFU/mL, 18 h, 37 °C, at least triplicate.
Format: cell-based, Staphylococcus aureus
Procedure: as §1

Substance	MIC [µg/mL]
GLFDVIKKVASVIGGL-NH2 [Citropin 1.1 Cl^−]	8
KWKLFKKIGAVLKVL-NH2 [CAMEL Cl^−]	1

What follows are substances tested on S. aureus 033N. Conditions: clinical strain, broth microdilution, 0.5 × 10^5 CFU/mL, 18 h, 37 °C, at least triplicate.
Format: cell-based, Staphylococcus aureus
Procedure: as §1

Substance	MIC [µg/mL]
GLFDVIKKVASVIGGL-NH2 [Citropin 1.1 Cl^−]	16
KWKLFKKIGAVLKVL-NH2 [CAMEL Cl^−]	4

What follows are substances tested on S. aureus 060S. Conditions: clinical strain, broth microdilution, 0.5 × 10^5 CFU/mL, 18 h, 37 °C, at least triplicate.
Format: cell-based, Staphylococcus aureus
Procedure: as §1

Substance	MIC [µg/mL]
GLFDVIKKVASVIGGL-NH2 [Citropin 1.1 Cl^−]	2
KWKLFKKIGAVLKVL-NH2 [CAMEL Cl^−]	1

Each substance was assayed on S. aureus 051S. Conditions: clinical strain, broth microdilution, 0.5 × 10^5 CFU/mL, 18 h, 37 °C, at least triplicate.
Format: cell-based, Staphylococcus aureus
Procedure: as §1

Substance	MIC [µg/mL]
GLFDVIKKVASVIGGL-NH2 [Citropin 1.1 Cl^−]	4
KWKLFKKIGAVLKVL-NH2 [CAMEL Cl^−]	2

Each substance was assayed on S. aureus 045N. Conditions: clinical strain, broth microdilution, 0.5 × 10^5 CFU/mL, 18 h, 37 °C, at least triplicate.
Format: cell-based, Staphylococcus aureus
Procedure: as §1

Substance	MIC [µg/mL]
GLFDVIKKVASVIGGL-NH2 [Citropin 1.1 Cl^−]	16
KWKLFKKIGAVLKVL-NH2 [CAMEL Cl^−]	4

The substances below were run on S. aureus 005S. Conditions: clinical strain, broth microdilution, 0.5 × 10^5 CFU/mL, 18 h, 37 °C, at least triplicate.
Format: cell-based, Staphylococcus aureus
Procedure: as §1

Substance	MIC
GLFDVIKKVASVIGGL-NH2 [Citropin 1.1 Cl^−]	2 µg/mL
KWKLFKKIGAVLKVL-NH2 [CAMEL Cl^−]	≤ (≤ alone stands for MIC ≤ 0.25 µg/mL)

These substances were tested on S. aureus 015N (MRSA). Conditions: clinical strain, broth microdilution, 0.5 × 10^5 CFU/mL, 18 h, 37 °C, at least triplicate.
Format: cell-based, Staphylococcus aureus
Procedure: as §1

Substance	MIC [µg/mL]
GLFDVIKKVASVIGGL-NH2 [Citropin 1.1 Cl^−]	8
KWKLFKKIGAVLKVL-NH2 [CAMEL Cl^−]	2

Each substance was assayed on S. aureus K19N. Conditions: clinical strain, broth microdilution, 0.5 × 10^5 CFU/mL, 18 h, 37 °C, at least triplicate.
Format: cell-based, Staphylococcus aureus
Procedure: as §1

Substance	MIC [µg/mL]
GLFDVIKKVASVIGGL-NH2 [Citropin 1.1 Cl^−]	16
KWKLFKKIGAVLKVL-NH2 [CAMEL Cl^−]	1

The substances below were run on S. aureus 043SC (MRSA). Conditions: clinical strain, broth microdilution, 0.5 × 10^5 CFU/mL, 18 h, 37 °C, at least triplicate.
Format: cell-based, Staphylococcus aureus
Procedure: as §1

Substance	MIC [µg/mL]
GLFDVIKKVASVIGGL-NH2 [Citropin 1.1 Cl^−]	8
KWKLFKKIGAVLKVL-NH2 [CAMEL Cl^−]	4

The substances below were run on S. aureus ATCC 6538. Conditions: ATCC 6538, reference strain; broth microdilution, 0.5 × 10^5 CFU/mL, 18 h, 37 °C, at least triplicate.
Format: cell-based, Staphylococcus aureus
Procedure: as §1

Substance	MIC
GLFDVIKKVASVIGGL-NH2 [Citropin 1.1 Cl^−]	4 µg/mL
KWKLFKKIGAVLKVL-NH2 [CAMEL Cl^−]	≤ (≤ alone stands for MIC ≤ 0.25 µg/mL)

The substances below were run on S. aureus 053N. Conditions: clinical strain, broth microdilution, 0.5 × 10^5 CFU/mL, 18 h, 37 °C, at least triplicate.
Format: cell-based, Staphylococcus aureus
Procedure: as §1

Substance	MIC [µg/mL]
GLFDVIKKVASVIGGL-NH2 [Citropin 1.1 Cl^−]	16
KWKLFKKIGAVLKVL-NH2 [CAMEL Cl^−]	4

What follows are substances tested on S. aureus 051N (MRSA). Conditions: clinical strain, broth microdilution, 0.5 × 10^5 CFU/mL, 18 h, 37 °C, at least triplicate.
Format: cell-based, Staphylococcus aureus
Procedure: as §1

Substance	MIC [µg/mL]
GLFDVIKKVASVIGGL-NH2 [Citropin 1.1 Cl^−]	8
KWKLFKKIGAVLKVL-NH2 [CAMEL Cl^−]	2

These substances were tested on S. aureus 017S (MRSA). Conditions: clinical strain, broth microdilution, 0.5 × 10^5 CFU/mL, 18 h, 37 °C, at least triplicate.
Format: cell-based, Staphylococcus aureus
Procedure: as §1

Substance	MIC [µg/mL]
GLFDVIKKVASVIGGL-NH2 [Citropin 1.1 Cl^−]	4
KWKLFKKIGAVLKVL-NH2 [CAMEL Cl^−]	2

Reference: publication PMC5917001, “Counter-ion effect on antistaphylococcal activity and cytotoxicity of selected antimicrobial peptides” (Amino Acids, 2018)
